Laboratory results as given in US20230310387A1, “Reduced Dose Metaxalone Formulations” (Primus Pharmaceuticals, Inc., priority 2023, published 2023).

What was measured:
[1] = Particle Size Analysis by Sieve Method; assay type: physicochemical; conditions: non-micronized metaxalone
Excerpt: The Sieve Method refers to the method for particle size analysis described in American Society for Testing and Materials (ASTM) standard C 136 (in effect on Jan. 1, 2019). In the method a representative weighed sample is poured into the top sieve which has the largest screen openings. Each lower sieve in the column has smaller openings than the one above. At the base is a round pan, called the receiver. The column is typically placed in a mechanical shaker. such as the sonic sifter available from Endecotts (London, UK). See Endecotts website at https://www.endecotts.com/products/sieve-shakers/sonic-sifter/product-specifications/. The shaker shakes the column, usually for some fixed amount of time. After the shaking is complete the material on each sieve is weighed. The mass of the sample of each sieve is then divided by the total mass to give a percentage retained on each sieve. The size of the average particle on each sieve is then analyzed to get a cut-off point or specific size range, which is then captured on a screen. Tables 2a and 2b describes representative particle sizes for the micronized and non-micronized metaxalone particles used in the formulation of Table 1. [table]

[2] = Particle Size Analysis by Malvern Method; assay type: physicochemical; conditions: micronized metaxalone
Excerpt: In one subembodiment, when the formulation is characterized based on metaxalone particle size, at least 50%, 70%, or 90% of the micronized particles of metaxalone are smaller than 200, 100, or 75 microns when tested according to the Malvern Method (i.e. laser diffraction). Alternatively or in addition, at least 30%, 40%, or 50% of the micronized particles are less than 50, 30, or 20 microns. when tested according to the Malvern Method. Tables 2a and 2b describes representative particle sizes for the micronized and non-micronized metaxalone particles used in the formulation of Table 1. [table]

| % Retained on Sieve # 30 [1] [%] | % Retained on Sieve # 120 [1] [%] | % Retained on Sieve # 325 [1] [%] | 10% of the Particles (d10) [2] [µ] | 50% of the Particles (d50) [2] [µ] | 90% of the Particles (d90) [2] [µ] | Structure (SMILES) |
| --- | --- | --- | --- | --- | --- | --- |
| 1 | 49 | 30 |  |  |  | Cc1cc(C)cc(OCC2CNC(=O)O2)c1 (single isomer, unassigned) [Lot2b, metaxalone] |
| 1 | 63 | 29 |  |  |  | Cc1cc(C)cc(OCC2CNC(=O)O2)c1 (single isomer, unassigned) [Lot2c, metaxalone] |
| 1 | 61 | 28 |  |  |  | Cc1cc(C)cc(OCC2CNC(=O)O2)c1 (single isomer, unassigned) [Lot2d, metaxalone] |
|  |  |  | 0.81 | 10.11 | 49.91 | Cc1cc(C)cc(OCC2CNC(=O)O2)c1 (stereo not drawn) [Lot2a, metaxalone] |
